ChEMBL document CHEMBL5625206, “Design, synthesis, and evaluation of novel pleuromutilin aryl acrylate derivatives as promising broad-spectrum antibiotics especially for combatting multi-drug resistant gram-negative bacteria” (Eur J Med Chem, 2023)
Converted amounts (≈) assume the structure as drawn. The source made the active and inactive calls. The calls are words filed in the database; no cut-off is given here.

What was measured:
[1] = Toxicity in fasted female Sprague-Dawley rat assessed as body weight at 331 mg/kg, IG measured after 14 days (reference value: 214.3 +/- 9.8 g); type: organism-based; conditions: in vivo, po, 336 h, time 14 day
Escherichia coli [2] = experiment: Disruption of cell membrane integrity in Escherichia coli ATCC 25922 assessed as wrinkled cell surface at MIC incubated for 4 hrs by FESEM analysis; type: functional, organism-based
[3] = Cytotoxicity against human A549 cells incubated for 24 hrs by CCK8 assay; type: toxicity, cell-based
Staphylococcus aureus [4] = experiment: Disruption of cell membrane integrity in methicillin-resistant Staphylococcus aureus ATCC 33591 assessed as increase in red fluorescence at 1 to 4 times MIC incubated for 2 hrs by MycoLight green JJ98/PI staining based analysis; type: functional, organism-based
[5] = Toxicity in fasted male Sprague-Dawley rat assessed as body weight at 100 mg/kg, IG measured after 7 days (reference value: 260.5 +/- 12.7 g); type: organism-based; conditions: in vivo, po, 168 h, time 7 day
[6] = Toxicity in fasted male Sprague-Dawley rat assessed as relative lung weight ratio at 331 mg/kg, IG measured for 14 days (reference value: 0.437 +/- 0.064); type: organism-based; conditions: in vivo, po, 336 h, time 14 day
[7] = Toxicity in fasted female Sprague-Dawley rat assessed as body weight at 500 mg/kg, IG measured after 14 days (reference value: 214.3 +/- 9.8 g); type: organism-based; conditions: in vivo, po, 336 h, time 14 day
Escherichia coli [8] = experiment: Induction of cell damage in Escherichia coli ATCC 25922 assessed as intracellular pH at MIC incubated for 30 mins by fluorescence based analysis (reference value: 6.05 +/- 0.10); type: functional; conditions: 0.5 h
[9] = Toxicity in fasted female Sprague-Dawley rat assessed as relative kidney weight ratio at 500 mg/kg, IG measured for 14 days (reference value: 0.802 +/- 0.031); type: organism-based; conditions: in vivo, po, 336 h, time 14 day
[10] = Toxicity in fasted female Sprague-Dawley rat assessed as relative ovary weight ratio at 148 mg/kg, IG measured for 14 days (reference value: 0.061 +/- 0.010); type: organism-based; conditions: in vivo, po, 336 h, time 14 day
[11] = Toxicity in fasted female Sprague-Dawley rat assessed as relative heart weight ratio at 148 mg/kg, IG measured for 14 days (reference value: 0.429 +/- 0.016); type: organism-based; conditions: in vivo, po, 336 h, time 14 day
[12] = Toxicity in fasted female Sprague-Dawley rat assessed as relative heart weight ratio at 224 mg/kg, IG measured for 14 days (reference value: 0.429 +/- 0.016); type: organism-based; conditions: in vivo, po, 336 h, time 14 day
[13] = Toxicity in fasted female Sprague-Dawley rat assessed as relative liver weight ratio at 224 mg/kg, IG measured for 14 days (reference value: 3.199 +/- 0.062); type: organism-based; conditions: in vivo, po, 336 h, time 14 day
[14] = Toxicity in fasted male Sprague-Dawley rat assessed as relative spleen weight ratio at 100 mg/kg, IG measured for 14 days (reference value: 0.246 +/- 0.037); type: organism-based; conditions: in vivo, po, 336 h, time 14 day
[15] = Toxicity in fasted male Sprague-Dawley rat assessed as animal growth rate at 331 mg/kg, IG measured for 14 days (reference value: 46.53 +/- 3.19 g); type: organism-based; conditions: in vivo, po, 336 h, time 14 day
Staphylococcus aureus [16] = experiment: Antibacterial activity against methicillin-resistant Staphylococcus aureus ATCC 33591 infected in neutropenic Kunming mouse model assessed as reduction in infection-induced inflammatory cell infiltration in liver at 20 mg/kg, ip measured after 7 days; type: functional, organism-based; conditions: time 7.0 day
[17] = Toxicity in fasted male Sprague-Dawley rat assessed as relative liver weight ratio at 100 mg/kg, IG measured for 14 days (reference value: 3.616 +/- 0.286); type: organism-based; conditions: in vivo, po, 336 h, time 14 day
[18] = Toxicity in fasted Sprague-Dawley rat assessed as mortality rate at 331 mg/kg, IG measured for 14 days; type: organism-based; conditions: in vivo, po, time 14 day
Staphylococcus aureus [19] = experiment: Antibacterial activity against methicillin-resistant Staphylococcus aureus ATCC 33591 infected in neutropenic Kunming mouse model assessed as reduction in infection-induced kidney damage at 20 mg/kg, ip measured after 7 days; type: functional, organism-based; conditions: time 7.0 day
[20] = Toxicity in fasted male Sprague-Dawley rat assessed as relative testis weight ratio at 224 mg/kg, IG measured for 14 days (reference value: 0.993 +/- 0.052); type: organism-based; conditions: in vivo, po, 336 h, time 14 day
Staphylococcus aureus [21] = experiment: Antibacterial activity against methicillin-resistant Staphylococcus aureus ATCC 33591 assessed as bacterial growth inhibition incubated for 24 hrs by CLSI based broth microdilution method; type: functional
[22] = Toxicity in fasted female Sprague-Dawley rat assessed as relative spleen weight ratio at 148 mg/kg, IG measured for 14 days (reference value: 0.223 +/- 0.019); type: organism-based; conditions: in vivo, po, 336 h, time 14 day
[23] = Toxicity in fasted male Sprague-Dawley rat assessed as body weight at 148 mg/kg, IG measured after 7 days (reference value: 260.5 +/- 12.7 g); type: organism-based; conditions: in vivo, po, 168 h, time 7 day
[24] = Toxicity in fasted female Sprague-Dawley rat assessed as animal growth rate at 500 mg/kg, IG measured for 14 days (reference value: 29.85 +/- 4.97 g); type: organism-based; conditions: in vivo, po, 336 h, time 14 day
[25] = Toxicity in fasted male Sprague-Dawley rat assessed as relative testis weight ratio at 500 mg/kg, IG measured for 14 days (reference value: 0.993 +/- 0.052); type: organism-based; conditions: in vivo, po, 336 h, time 14 day
Escherichia coli [26] = experiment: Induction of cell damage in Escherichia coli ATCC 25922 assessed as fold increase in extracellular ATP concentration at 2 times MIC incubated for 30 mins by fluorescence based analysis relative to control; type: functional; conditions: 0.5 h
[27] = Toxicity in fasted female Sprague-Dawley rat assessed as body weight at 100 mg/kg, IG measured after 7 days (reference value: 188.2 +/- 9.2 g); type: organism-based; conditions: in vivo, po, 168 h, time 7 day
Staphylococcus aureus [28] = experiment: Induction of extracellular electrical conductivity in methicillin-resistant Staphylococcus aureus ATCC 33591 at MIC incubated for 8 hrs relative to control
Staphylococcus aureus [29] = experiment: Antibacterial activity against methicillin-resistant Staphylococcus aureus ATCC 33591 infected in neutropenic Kunming mouse model administered intraperitoneally measured after 7 days; type: functional; conditions: ATCC 33591, 168 h, route ip, time 7 day
[30] = Toxicity in fasted female Sprague-Dawley rat assessed as relative spleen weight ratio at 331 mg/kg, IG measured for 14 days (reference value: 0.223 +/- 0.019); type: organism-based; conditions: in vivo, po, 336 h, time 14 day
[31] = Toxicity in fasted female Sprague-Dawley rat assessed as relative ovary weight ratio at 500 mg/kg, IG measured for 14 days (reference value: 0.061 +/- 0.010); type: organism-based; conditions: in vivo, po, 336 h, time 14 day
[32] = Toxicity in fasted male Sprague-Dawley rat assessed as relative lung weight ratio at 100 mg/kg, IG measured for 14 days (reference value: 0.437 +/- 0.064); type: organism-based; conditions: in vivo, po, 336 h, time 14 day
[33] = Toxicity in fasted female Sprague-Dawley rat assessed as relative kidney weight ratio at 224 mg/kg, IG measured for 14 days (reference value: 0.802 +/- 0.031); type: organism-based; conditions: in vivo, po, 336 h, time 14 day
Escherichia coli [34] = experiment: Disruption of cell membrane integrity in Escherichia coli ATCC 25922 assessed as increase in red fluorescence at 1 to 4 times MIC incubated for 2 hrs by MycoLight green JJ98/PI staining based analysis; type: functional, organism-based
[35] = Toxicity in fasted female Sprague-Dawley rat assessed as relative lung weight ratio at 500 mg/kg, IG measured for 14 days (reference value: 0.534 +/- 0025); type: organism-based; conditions: in vivo, po, 336 h, time 14 day
Staphylococcus aureus [36] = experiment: Antibacterial activity against Staphylococcus aureus ATCC 29213 assessed as bacterial growth inhibition incubated for 24 hrs by CLSI based broth microdilution method; type: functional

C=C[C@]1(C)C[C@@H](OC(=O)COC(=O)/C=C/c2ccc(N(C)C)cc2)[C@]2(C)[C@H](C)CC[C@]3(CCC(=O)[C@H]32)[C@@H](C)[C@@H]1O
Activity [1]: 218.7 g | Activity (Escherichia coli [2]): Active | CC50 at 24 h [3]: > 200 µM | Activity (Staphylococcus aureus [4]): Active | Activity [5]: 265.5 g | Ratio [6]: 0.397 | Activity [7]: 207.7 g | pH (Escherichia coli [8]): 4.34 | Ratio [9]: 0.798 | Ratio [10]: 0.066 | Ratio [11]: 0.447 | Ratio [12]: 0.453 | Ratio [13]: 3.197 | Ratio [14]: 0.254 | Activity [15]: 40.48% | Activity (Staphylococcus aureus [16]): Active | Ratio [17]: 3.623 | mortality at 336 h [18]: 0% | Activity (Staphylococcus aureus [19]): Active | Ratio [20]: 0.981 | MIC (Staphylococcus aureus [21]): 2 µg/mL (≈ 3.63 µM) | Ratio [22]: 0.238 | Activity [23]: 256.8 g | Activity [24]: 30.22% | Ratio [25]: 0.956 | fold change (FC) (Escherichia coli [26]): 5.35 | Activity [27]: 188.2 g | Activity (Staphylococcus aureus [28]): 14.9% | ED50 (Staphylococcus aureus [29]): 9.04 mg/kg | Ratio [30]: 0.247 | Ratio [31]: 0.071 | Ratio [32]: 0.44 | Ratio [33]: 0.839 | Activity (Escherichia coli [34]): Active | Ratio [35]: 0.503 | MIC (Staphylococcus aureus [36]): 2 µg/mL (≈ 3.63 µM)
